Experimental data taken from ChEMBL document CHEMBL3994564 (Medchemcomm, 2016).
Values after ≈ are worked out from the molar mass of the structure shown.

Experiments:
Staphylococcus aureus = experiment: Antibacterial activity against Staphylococcus aureus ATCC 6538 after 24 hrs by MTT assay; type: functional; settings: ATCC 6538, 24 h
Pseudomonas aeruginosa = experiment: Antibacterial activity against Pseudomonas aeruginosa ATCC 27853 after 24 hrs by MTT assay; type: functional; settings: ATCC 27853, 24 h
Escherichia coli = experiment: Antibacterial activity against Escherichia coli ATCC 25922 after 24 hrs by MTT assay; type: functional; settings: ATCC 25922, 24 h
Bacillus subtilis = experiment: Antibacterial activity against Bacillus subtilis ATCC 530 after 24 hrs by MTT assay; type: functional; settings: ATCC 530, 24 h
[1] = target: T1, Beta-ketoacyl-[acyl-carrier-protein] synthase III (Escherichia coli K-12, UniProt P0A6R0); experiment: Inhibition of Escherichia coli FabH expressed in Escherichia coli DH10B using holo-ACP/acetyl-CoA as substrate assessed as incorporation of [3H] signal in final product preincubated with holo-ACP for 1 hr followed by acetyl-CoA addition measured after 25 mins by liquid scintillation counting method
T1 sequence (P0A6R0 whole entry): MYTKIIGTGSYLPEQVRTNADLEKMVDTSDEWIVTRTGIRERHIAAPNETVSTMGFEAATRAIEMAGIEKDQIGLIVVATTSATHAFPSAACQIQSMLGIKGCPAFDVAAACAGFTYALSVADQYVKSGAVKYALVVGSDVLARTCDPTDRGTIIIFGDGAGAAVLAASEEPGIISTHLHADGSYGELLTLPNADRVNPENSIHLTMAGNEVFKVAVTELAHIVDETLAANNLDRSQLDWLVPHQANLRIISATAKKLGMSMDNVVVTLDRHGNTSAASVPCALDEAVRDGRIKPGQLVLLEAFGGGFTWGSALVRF

NIH3T3 = experiment: Cytotoxic activity against mouse NIH/3T3 cells after 24 hrs by MTT assay; type: cell-based; settings: NIH3T3, 24 h

SMILES	MIC (Staphylococcus aureus) [µg/mL]	MIC (Pseudomonas aeruginosa) [µg/mL]	MIC (Escherichia coli) [µg/mL]	MIC (Bacillus subtilis) [µg/mL]	IC50 [1] [µM]	IC50 (NIH3T3) [µM]
O=C(N/N=C/c1ccccc1)c1ccc2c(c1)OCCCO2	> 100	50 (≈ 169 µM)	50 (≈ 169 µM)	> 100	–	–
O=Cc1ccccc1/C=N/NC(=O)c1ccc2c(c1)OCCCO2	25 (≈ 77.1 µM)	25 (≈ 77.1 µM)	25 (≈ 77.1 µM)	50 (≈ 154 µM)	–	–
O=C(N/N=C/c1ccc([N+](=O)[O-])cc1)c1ccc2c(c1)OCCCO2	50 (≈ 146 µM)	25 (≈ 73.2 µM)	25 (≈ 73.2 µM)	25 (≈ 73.2 µM)	17.6	185
C(=N\C1CCCCC1)/c1ccc2c(c1)OCCCO2	–	–	–	–	1.6	–
CN(C)c1ccc(/C=N/NC(=O)c2ccc3c(c2)OCCCO3)cc1	6.25 (≈ 18.4 µM)	12.5 (≈ 36.8 µM)	6.25 (≈ 18.4 µM)	6.25 (≈ 18.4 µM)	7.2	135
COc1ccc(/C=N/NC(=O)c2ccc3c(c2)OCCCO3)cc1OC	6.25 (≈ 17.5 µM)	3.13 (≈ 8.78 µM)	3.13 (≈ 8.78 µM)	3.13 (≈ 8.78 µM)	4.1	126
O=C(N/N=C/c1cccs1)c1ccc2c(c1)OCCCO2	> 100	> 100	> 100	> 100	–	–
O=C(N/N=C/c1ccc(O)cc1)c1ccc2c(c1)OCCCO2	12.5 (≈ 40 µM)	25 (≈ 80 µM)	50 (≈ 160 µM)	25 (≈ 80 µM)	38.7	178
O=C(N/N=C/c1ccccc1Br)c1ccc2c(c1)OCCCO2	50 (≈ 133 µM)	25 (≈ 66.6 µM)	50 (≈ 133 µM)	25 (≈ 66.6 µM)	–	–
CN(C)c1ccc(/C=N/NC(=O)c2ccc3c(c2)OCCCO3)c(O)c1	25 (≈ 70.3 µM)	12.5 (≈ 35.2 µM)	12.5 (≈ 35.2 µM)	50 (≈ 141 µM)	6.7	203
O=C(N/N=C/c1ccc2ccccc2c1)c1ccc2c(c1)OCCCO2	6.25 (≈ 18 µM)	3.13 (≈ 9.04 µM)	6.25 (≈ 18 µM)	3.13 (≈ 9.04 µM)	4.6	114
COc1ccc(/C=N/NC(=O)c2ccc3c(c2)OCCCO3)cc1	25 (≈ 76.6 µM)	12.5 (≈ 38.3 µM)	25 (≈ 76.6 µM)	50 (≈ 153 µM)	24.1	132
Cc1cccc(/C=N/NC(=O)c2ccc3c(c2)OCCCO3)c1	> 100	25 (≈ 80.6 µM)	50 (≈ 161 µM)	50 (≈ 161 µM)	–	–
COc1cc(/C=N/NC(=O)c2ccc3c(c2)OCCCO3)cc(OC)c1O	6.25 (≈ 16.8 µM)	6.25 (≈ 16.8 µM)	3.13 (≈ 8.41 µM)	3.13 (≈ 8.41 µM)	3.9	147
O=C(N/N=C/c1cc([N+](=O)[O-])ccc1F)c1ccc2c(c1)OCCCO2	12.5 (≈ 34.8 µM)	12.5 (≈ 34.8 µM)	6.25 (≈ 17.4 µM)	12.5 (≈ 34.8 µM)	9.5	168
O=C(N/N=C/c1ccc(I)cc1)c1ccc2c(c1)OCCCO2	6.25 (≈ 14.8 µM)	25 (≈ 59.2 µM)	25 (≈ 59.2 µM)	12.5 (≈ 29.6 µM)	6.9	201
O=C(N/N=C/c1cc([N+](=O)[O-])ccc1Cl)c1ccc2c(c1)OCCCO2	3.13 (≈ 8.33 µM)	3.13 (≈ 8.33 µM)	3.13 (≈ 8.33 µM)	6.25 (≈ 16.6 µM)	3.9	172
O=C(N/N=C/c1ccc(O)c(O)c1)c1ccc2c(c1)OCCCO2	25 (≈ 76.1 µM)	12.5 (≈ 38.1 µM)	12.5 (≈ 38.1 µM)	25 (≈ 76.1 µM)	7.8	102
O=C(N/N=C/c1ccccc1Cl)c1ccc2c(c1)OCCCO2	50 (≈ 151 µM)	50 (≈ 151 µM)	25 (≈ 75.6 µM)	> 100	–	–

SMILES	MIC (Staphylococcus aureus) [µg/mL]	MIC (Pseudomonas aeruginosa) [µg/mL]	MIC (Escherichia coli) [µg/mL]	MIC (Bacillus subtilis) [µg/mL]	IC50 [1] [µM]	IC50 (NIH3T3) [µM]
O=C(N/N=C/c1cccc2ccccc12)c1ccc2c(c1)OCCCO2	6.25 (≈ 18 µM)	6.25 (≈ 18 µM)	3.13 (≈ 9.04 µM)	6.25 (≈ 18 µM)	5.2	130
O=C(N/N=C/c1ccc(-c2ccccc2)cc1)c1ccc2c(c1)OCCCO2	12.5 (≈ 33.6 µM)	6.25 (≈ 16.8 µM)	3.13 (≈ 8.4 µM)	6.25 (≈ 16.8 µM)	4.7	146
O=C(N/N=C/c1ccc(Cl)c([N+](=O)[O-])c1)c1ccc2c(c1)OCCCO2	6.25 (≈ 16.6 µM)	6.25 (≈ 16.6 µM)	3.13 (≈ 8.33 µM)	3.13 (≈ 8.33 µM)	4.4	147
Cc1ccc(/C=N/NC(=O)c2ccc3c(c2)OCCCO3)o1	> 100	> 100	> 100	> 100	–	–
Cc1ccc(/C=N/NC(=O)c2ccc3c(c2)OCCCO3)cc1	> 100	50 (≈ 161 µM)	50 (≈ 161 µM)	50 (≈ 161 µM)	–	–
O=C(N/N=C/c1ccc(Cl)cc1Cl)c1ccc2c(c1)OCCCO2	6.25 (≈ 17.1 µM)	6.25 (≈ 17.1 µM)	6.25 (≈ 17.1 µM)	12.5 (≈ 34.2 µM)	4.3	198
Cc1ccccc1/C=N/NC(=O)c1ccc2c(c1)OCCCO2	> 100	50 (≈ 161 µM)	> 100	> 100	–	–
O=C(N/N=C/c1c(F)cccc1Cl)c1ccc2c(c1)OCCCO2	25 (≈ 71.7 µM)	25 (≈ 71.7 µM)	12.5 (≈ 35.8 µM)	50 (≈ 143 µM)	20.6	164
O=C(N/N=C/c1cc(Cl)ccc1O)c1ccc2c(c1)OCCCO2	50 (≈ 144 µM)	25 (≈ 72.1 µM)	12.5 (≈ 36 µM)	25 (≈ 72.1 µM)	13.2	111
COc1cc(/C=N/NC(=O)c2ccc3c(c2)OCCCO3)cc(OC)c1OC	3.13 (≈ 8.1 µM)	3.13 (≈ 8.1 µM)	1.56 (≈ 4.04 µM)	1.56 (≈ 4.04 µM)	2	120
O=C(N/N=C/c1cc([N+](=O)[O-])ccc1O)c1ccc2c(c1)OCCCO2	6.25 (≈ 17.5 µM)	3.13 (≈ 8.76 µM)	6.25 (≈ 17.5 µM)	3.13 (≈ 8.76 µM)	3.5	157
NC[C@H]1O[C@H](O[C@H]2[C@H](O)[C@@H](O[C@H]3O[C@H](CO)[C@@H](O)[C@H](N)[C@H]3O)[C@H](N)C[C@@H]2N)[C@H](N)[C@@H](O)[C@@H]1O [BEKANAMYCIN]	1.56 (≈ 3.23 µM)	3.13 (≈ 6.47 µM)	3.13 (≈ 6.47 µM)	1.56 (≈ 3.23 µM)	5.6	–
O=C(N/N=C/c1ccc(O)c([N+](=O)[O-])c1)c1ccc2c(c1)OCCCO2	25 (≈ 70 µM)	12.5 (≈ 35 µM)	6.25 (≈ 17.5 µM)	12.5 (≈ 35 µM)	8.9	198
O=C(N/N=C/c1ccc(F)cc1)c1ccc2c(c1)OCCCO2	25 (≈ 79.5 µM)	25 (≈ 79.5 µM)	12.5 (≈ 39.8 µM)	50 (≈ 159 µM)	32.5	126
O=C(N/N=C/c1ccc(F)c([N+](=O)[O-])c1)c1ccc2c(c1)OCCCO2	6.25 (≈ 17.4 µM)	6.25 (≈ 17.4 µM)	12.5 (≈ 34.8 µM)	6.25 (≈ 17.4 µM)	5.1	131
O=C(N/N=C/c1ccc(C(F)(F)F)cc1)c1ccc2c(c1)OCCCO2	12.5 (≈ 34.3 µM)	12.5 (≈ 34.3 µM)	25 (≈ 68.6 µM)	25 (≈ 68.6 µM)	12.4	104
O=C(N/N=C/c1ccccc1O)c1ccc2c(c1)OCCCO2	25 (≈ 80 µM)	50 (≈ 160 µM)	50 (≈ 160 µM)	12.5 (≈ 40 µM)	–	–
O=C(N/N=C/C=C/c1ccccc1)c1ccc2c(c1)OCCCO2	> 100	25 (≈ 77.6 µM)	50 (≈ 155 µM)	50 (≈ 155 µM)	–	–
O=C(N/N=C/c1cc(Cl)cc(Cl)c1O)c1ccc2c(c1)OCCCO2	12.5 (≈ 32.8 µM)	6.25 (≈ 16.4 µM)	12.5 (≈ 32.8 µM)	6.25 (≈ 16.4 µM)	5.4	184
